In patent US4971967A, “Quinolinecarboxylic acid derivatives, antibacterial compositions and use” (Kanebo Ltd, priority 1989, dated 1990):
Values after ≈ are worked out from the molar mass of the structure shown. Structures can show the parent of a compound that is named as a salt. Where two headings read alike, the source gives them in different places.

Assays:
Type in all cases: cell-based
[1] = test system: Morganella morganii IFO 3848; test: Antibacterial activity (MIC), Morganella morganii IFO 3848; details: Morganella morganii, IFO3848, Morganella morganii IFO 3848, Gram -; read-out: Minimum inhibitory concentration (MIC)
Method: (§1) The compounds of the present invention (A, C, D, E, F, G, H, I, J, L, O and P) and the known compound (X) as reference were dissolved in 0.1 N aqueous sodium hydroxide to prepare a solution of 5000 μg/ml in concentration. The compounds of the present invention (B, K, M and N) and the known compound (Y) were dissolved in sterilized distilled water to prepare a solution of 5000 μg/ml in concentration. Each solution was diluted with sterilized distilled water to prepare a standard solution with a concentration of each test compound: 1000 μg/ml. The test was carried out by a method as appointed by Japan Society of Chemotherapy [cf. Chemotherapy, 29, 76-79 (1981)(TOKYO)].

[2] = test system: Pseudomonas aeruginosa NCTC 10490; test: Antibacterial activity (MIC), P. aeruginosa NCTC 10490; details: Pseudomonas aeruginosa, NCTC10490, Pseudomonas aeruginosa NCTC 10490, Gram -; read-out: Minimum inhibitory concentration (MIC)
Method: as §1

[3] = test system: Micrococcus luteus ATCC 9341; test: Antibacterial activity (MIC), Micrococcus luteus ATCC 9341; details: ATCC9341; Micrococcus luteus ATCC 9341, Gram +; read-out: Minimum inhibitory concentration (MIC)
Method: as §1

[4] = test system: Escherichia coli NIHJ JC-2; test: Antibacterial activity (MIC), E. coli NIHJ JC-2; details: NIHJJC2; Escherichia coli NIHJ JC-2, Gram -; read-out: Minimum inhibitory concentration (MIC)
Method: as §1

[5] = test system: Staphylococcus aureus IID 803; test: Antibacterial activity (MIC), S. aureus IID 803
Method: as §1

[6] = test system: Pseudomonas aeruginosa E-2; test: Antibacterial activity (MIC), P. aeruginosa E-2; details: E2; Pseudomonas aeruginosa E-2, Gram -; read-out: Minimum inhibitory concentration (MIC)
Method: as §1

[7] = test system: Proteus vulgaris OX-19; test: Antibacterial activity (MIC), Proteus vulgaris OX-19; details: OX19; Proteus vulgaris OX-19, Gram -; read-out: Minimum inhibitory concentration (MIC)
Method: as §1

[8] = test system: Acinetobacter calcoaceticus AC 54; test: Antibacterial activity (MIC), Acinetobacter calcoaceticus AC 54; details: AC54; Acinetobacter calcoaceticus AC 54, Gram -; read-out: Minimum inhibitory concentration (MIC)
Method: as §1

[9] = test system: Klebsiella pneumoniae PCI-602; test: Antibacterial activity (MIC), Klebsiella pneumoniae PCI-602; details: PCI602; Klebsiella pneumoniae PCI-602, Gram -; read-out: Minimum inhibitory concentration (MIC)
Method: as §1

[10] = test system: Streptococcus faecalis IID 682; test: Antibacterial activity (MIC), Streptococcus faecalis IID 682; details: Enterococcus faecalis
Method: as §1

[11] = test system: Salmonella typhimurium IID 971; test: Antibacterial activity (MIC), Salmonella typhimurium IID 971; details: Salmonella enterica, read-out: Minimum inhibitory concentration (MIC)
Method: as §1

[12] = test system: Staphylococcus epidermidis IAM-1296; test: Antibacterial activity (MIC), S. epidermidis IAM-1296; details: Staphylococcus epidermidis, IAM1296, Staphylococcus epidermidis IAM-1296, Gram +; read-out: Minimum inhibitory concentration (MIC)
Method: as §1

[13] = test system: Citrobacter freundii NIHJ 10018-68; test: Antibacterial activity (MIC), Citrobacter freundii NIHJ 10018-68; details: Citrobacter freundii, NIHJ10018, Citrobacter freundii NIHJ 10018-68, Gram -; read-out: Minimum inhibitory concentration (MIC)
Method: as §1

[14] = test system: Bacillus subtilis ATCC 6633; test: Antibacterial activity (MIC), Bacillus subtilis ATCC 6633; details: Bacillus subtilis, ATCC6633, Bacillus subtilis ATCC 6633, Gram +; read-out: Minimum inhibitory concentration (MIC)
Method: as §1

[15] = test system: Enterobacter aerogenes ATCC 13048; test: Antibacterial activity (MIC), Enterobacter aerogenes ATCC 13048; details: Klebsiella aerogenes, ATCC13048; Enterobacter aerogenes ATCC 13048, Gram -; read-out: Minimum inhibitory concentration (MIC)
Method: as §1

[16] = test system: Proteus mirabilis IFO 3849; test: Antibacterial activity (MIC), Proteus mirabilis IFO 3849; details: IFO3849; Proteus mirabilis IFO 3849, Gram -; read-out: Minimum inhibitory concentration (MIC)
Method: as §1

[17] = test system: Staphylococcus aureus FDA 209P JC-1; test: Antibacterial activity (MIC), S. aureus FDA 209P JC-1; details: FDA209P, read-out: Minimum inhibitory concentration (MIC)
Method: as §1

[18] = test system: Shigella sonnei EW-33; test: Antibacterial activity (MIC), Shigella sonnei EW-33; details: Shigella sonnei, EW33, Shigella sonnei EW-33, Gram -; read-out: Minimum inhibitory concentration (MIC)
Method: as §1

[19] = test system: Enterobacter cloacae 963; test: Antibacterial activity (MIC), Enterobacter cloacae 963; details: Enterobacter cloacae, 963, Enterobacter cloacae 963, Gram -; read-out: Minimum inhibitory concentration (MIC)
Method: as §1

[20] = test system: Escherichia coli KC-14; test: Antibacterial activity (MIC), E. coli KC-14; details: KC14; Escherichia coli KC-14, Gram -; read-out: Minimum inhibitory concentration (MIC)
Method: as §1

[21] = test system: Serratia marcescens IAM 1184; test: Antibacterial activity (MIC), Serratia marcescens IAM 1184; details: Serratia marcescens, IAM1184, Serratia marcescens IAM 1184, Gram -; read-out: Minimum inhibitory concentration (MIC)
Method: as §1

[22] = test system: Pseudomonas aeruginosa IFO 3445; test: Antibacterial activity (MIC), P. aeruginosa IFO 3445; details: Pseudomonas aeruginosa, IFO3445, Pseudomonas aeruginosa IFO 3445, Gram -; read-out: Minimum inhibitory concentration (MIC)
Method: as §1

[23] = IID682, Streptococcus faecalis IID 682, Gram +, read-out: Minimum inhibitory concentration (MIC)
[24] = Salmonella typhimurium IID 971, Gram -
[25] = IID803, Staphylococcus aureus IID 803, Gram +, read-out: Minimum inhibitory concentration (MIC)
[26] = IID682, read-out: Minimum inhibitory concentration (MIC)
[27] = Staphylococcus aureus FDA 209P JC-1, Gram +

CN1Cc2csc3c(C(=O)O)c(=O)c4cc(F)c(N5CCN(O)CC5)c1c4n23 [Compound (L), 9,1-(Methylimino)methano-7-fluoro-8-(4-hydroxy-1-piperazinyl)-5-oxo-5H-thiazolo[3,2-a]quinoline-4-carboxylic acid]
MIC [1]: 0.1 µg/mL (≈ 0.247 µM)
MIC [2]: 0.39 µg/mL (≈ 0.964 µM)
MIC [3]: 0.78 µg/mL (≈ 1.93 µM)
MIC [4]: 0.1 µg/mL (≈ 0.247 µM)
MIC ([5]; Staphylococcus aureus, IID803, read-out: Minimum inhibitory concentration (MIC)): 0.05 µg/mL (≈ 0.124 µM)
MIC [6]: 0.78 µg/mL (≈ 1.93 µM)
MIC [7]: 0.0125 µg/mL (≈ 0.0309 µM)
MIC [8]: 0.025 µg/mL (≈ 0.0618 µM)
MIC [9]: 6 ng/mL (≈ 0.0148 µM)
MIC [10, 23]: 0.1 µg/mL (≈ 0.247 µM)
MIC [11, 24]: 0.1 µg/mL (≈ 0.247 µM)
MIC [12]: 0.1 µg/mL (≈ 0.247 µM)
MIC [13]: 0.39 µg/mL (≈ 0.964 µM)
MIC [14]: 12.5 ng/mL (≈ 0.0309 µM)
MIC [15]: 0.1 µg/mL (≈ 0.247 µM)
MIC [16]: 0.2 µg/mL (≈ 0.495 µM)
MIC ([17]; Staphylococcus aureus): 0.05 µg/mL (≈ 0.124 µM)
MIC [18]: 0.05 µg/mL (≈ 0.124 µM)
MIC [19]: 0.1 µg/mL (≈ 0.247 µM)
MIC [20]: 0.1 µg/mL (≈ 0.247 µM)
MIC [21]: 0.78 µg/mL (≈ 1.93 µM)
MIC [22]: 0.78 µg/mL (≈ 1.93 µM)

CN1Cc2csc3c(C(=O)O)c(=O)c4cc(F)c(N5CCOCC5)c1c4n23 [Compound (I), 9,1-(Methylimino)methano-7-fluoro-8-morpholino-5-oxo-5H-thiazolo[3,2-a]quinoline-4-carboxylic acid]
MIC [1]: 0.1 µg/mL (≈ 0.257 µM)
MIC [2]: 0.2 µg/mL (≈ 0.514 µM)
MIC [3]: 0.1 µg/mL (≈ 0.257 µM)
MIC [4]: 0.1 µg/mL (≈ 0.257 µM)
MIC [5, 25]: 0.006 µg/mL (≈ 0.0154 µM)
MIC [6]: 0.39 µg/mL (≈ 1 µM)
MIC [7]: 0.025 µg/mL (≈ 0.0642 µM)
MIC [8]: 0.006 µg/mL (≈ 0.0154 µM)
MIC [9]: 6 ng/mL (≈ 0.0154 µM)
MIC [10, 26]: 0.05 µg/mL (≈ 0.128 µM)
MIC [11]: 0.05 µg/mL (≈ 0.128 µM)
MIC [12]: 0.025 µg/mL (≈ 0.0642 µM)
MIC [13]: 0.78 µg/mL (≈ 2 µM)
MIC [14]: 6 ng/mL (≈ 0.0154 µM)
MIC [15]: 0.2 µg/mL (≈ 0.514 µM)
MIC [16]: 0.1 µg/mL (≈ 0.257 µM)
MIC [17, 27]: 0.006 µg/mL (≈ 0.0154 µM)
MIC [18]: 0.05 µg/mL (≈ 0.128 µM)
MIC [19]: 0.1 µg/mL (≈ 0.257 µM)
MIC [20]: 0.1 µg/mL (≈ 0.257 µM)
MIC [21]: 0.39 µg/mL (≈ 1 µM)
MIC [22]: 0.39 µg/mL (≈ 1 µM)

CN1Cc2csc3c(C(=O)O)c(=O)c4cc(F)c(N5CCCC5)c1c4n23 [Compound (F), 9,1-(Methylimino)methano-7-fluoro-8-(1-pyrrolidinyl)-5-oxo-5H-thiazolo[3,2-a]quinoline-4-carboxylic acid]
MIC [1]: 0.39 µg/mL (≈ 1.04 µM)
MIC [2]: 0.39 µg/mL (≈ 1.04 µM)
MIC [3]: 0.39 µg/mL (≈ 1.04 µM)
MIC [4]: 0.2 µg/mL (≈ 0.536 µM)
MIC [5, 25]: 0.0125 µg/mL (≈ 0.0335 µM)
MIC [6]: 0.39 µg/mL (≈ 1.04 µM)
MIC [7]: 0.025 µg/mL (≈ 0.067 µM)
MIC [8]: 0.006 µg/mL (≈ 0.0161 µM)
MIC [9]: 6 ng/mL (≈ 0.0161 µM)
MIC [10, 26]: 0.1 µg/mL (≈ 0.268 µM)
MIC [11, 24]: 0.2 µg/mL (≈ 0.536 µM)
MIC [12]: 0.025 µg/mL (≈ 0.067 µM)
MIC [13]: 1.56 µg/mL (≈ 4.18 µM)
MIC [14]: 6 ng/mL (≈ 0.0161 µM)
MIC [15]: 0.39 µg/mL (≈ 1.04 µM)
MIC [16]: 0.39 µg/mL (≈ 1.04 µM)
MIC [17, 27]: 0.0125 µg/mL (≈ 0.0335 µM)
MIC [18]: 0.1 µg/mL (≈ 0.268 µM)
MIC [19]: 0.39 µg/mL (≈ 1.04 µM)
MIC [20]: 0.2 µg/mL (≈ 0.536 µM)
MIC [21]: 0.78 µg/mL (≈ 2.09 µM)
MIC [22]: 0.78 µg/mL (≈ 2.09 µM)

CCNCC1CCN(c2c(F)cc3c(=O)c(C(=O)O)c4scc5n4c3c2N(C)C5)C1 (centres unmarked) [Compound (M), 9,1-(Methylimino)methano-7-fluoro-8-(3-ethylaminomethyl-1-pyrrolidinyl)-5-oxo-5H-thiazolo[3,2-a]quinoline-4-carboxylic acid hydrochloride]
MIC [1]: 0.2 µg/mL
MIC [2]: 0.39 µg/mL
MIC [3]: 0.2 µg/mL
MIC [4]: 0.1 µg/mL
MIC [5, 25]: 0.0125 µg/mL
MIC [6]: 1.56 µg/mL
MIC [7]: 0.05 µg/mL
MIC [8]: 0.05 µg/mL
MIC [9]: 6 ng/mL
MIC [10, 23]: 0.05 µg/mL
MIC [11, 24]: 0.1 µg/mL
MIC [12]: 0.05 µg/mL
MIC [13]: 0.78 µg/mL
MIC [14]: 12.5 ng/mL
MIC [15]: 0.1 µg/mL
MIC [16]: 0.39 µg/mL
MIC [17, 27]: 0.025 µg/mL
MIC [18]: 0.05 µg/mL
MIC [19]: 0.2 µg/mL
MIC [20]: 0.1 µg/mL
MIC [21]: 0.78 µg/mL
MIC [22]: 1.56 µg/mL

CN1Cc2csc3c(C(=O)O)c(=O)c4cc(F)c(N5CCC(N)C5)c1c4n23 (centres unmarked) [(H), 9,1-(Methylimino)methano-7-fluoro-8-(3-amino-1-pyrrolidinyl)-5-oxo-5H-thiazolo[3,2-a]quinoline-4-carboxylic acid]
MIC [1]: 0.05 µg/mL (≈ 0.129 µM)
MIC [2]: 0.2 µg/mL (≈ 0.515 µM)
MIC [3]: 0.2 µg/mL (≈ 0.515 µM)
MIC [4]: 0.05 µg/mL (≈ 0.129 µM)
MIC [5, 25]: 0.006 µg/mL (≈ 0.0154 µM)
MIC [6]: 0.39 µg/mL (≈ 1 µM)
MIC [7]: 0.0125 µg/mL (≈ 0.0322 µM)
MIC [8]: 0.0125 µg/mL (≈ 0.0322 µM)
MIC [9]: 6 ng/mL (≈ 0.0154 µM)
MIC [10, 23]: 0.05 µg/mL (≈ 0.129 µM)
MIC [11, 24]: 0.05 µg/mL (≈ 0.129 µM)
MIC [12]: 0.05 µg/mL (≈ 0.129 µM)
MIC [13]: 0.1 µg/mL (≈ 0.257 µM)
MIC [14]: 6 ng/mL (≈ 0.0154 µM)
MIC [15]: 0.05 µg/mL (≈ 0.129 µM)
MIC [16]: 0.1 µg/mL (≈ 0.257 µM)
MIC [17, 27]: 0.025 µg/mL (≈ 0.0644 µM)
MIC [18]: 0.05 µg/mL (≈ 0.129 µM)
MIC [19]: 0.05 µg/mL (≈ 0.129 µM)
MIC [20]: 0.0125 µg/mL (≈ 0.0322 µM)
MIC [21]: 0.1 µg/mL (≈ 0.257 µM)
MIC [22]: 0.2 µg/mL (≈ 0.515 µM)
